Experimental findings from patent US6492418B2, “Compositions containing a benzamide disulfide derivative for treating allergic diseases” (Alcon Universal Ltd., priority 2000, dated 2002) are described below.

The assay deals with human conjunctival tissue mast cells. In words: Inhibition of anti-IgE induced histamine release from human conjunctival tissue mast cells (HCTMC). The assay is classed as cell-based. As to the method: Methods detailing preparation of mono-dispersed HCTMC and mediator release studies with these cells have been described (U.S. Pat. No. 5,360,720 and Miller et al, Ocular Immunology and Inflammation, 4(1):39-49 (1996)). Briefly, human conjunctival tissue mast cells were isolated from post-mortem tissue donors obtained within 8 hours of death by various eye banks and transported in Dexsol® corneal preservation medium, or equivalent. Tissues were enzymatically digested by repeated exposure (30 min. at 37° C.) to collagenase and hyaluronidase (2× with 200 U each/gram tissue, then 2-4 × with 2000 U each/gram tissue) in Tyrode's buffer containing 0.1% gelatin. (Tyrode's buffer (in mM): 137 NaCl, 2.7 KCl, 0.35 NaH2PO4, 1.8 CaCl2, 0.98 MgCl2, 11.9 NaHCO3, and 5.5 glucose). Each digestion mixture was filtered over Nitex® cloth (100 μm mesh, Tetko, Briarcliff Manor, N.Y.) and washed with an equal volume of buffer. Filtrates were centrifuged at 825×g (7 min). Pellets were resuspended in buffer then combined for enrichment over a […] Percoll® cushion. The enriched pellet was washed, resuspended in supplemented RPMI 1640 medium and incubated at 37° C. to equilibrate.
Cells were harvested from the culture plate and counted for viability (trypan blue exclusion) and mast cell number (toluidine blue O). Mast cells (5000/tube; 1 mL final volume) were challenged (37° C.) for 15 min with goat-anti-human IgE (10 μg/mL) following treatment (15 minutes; 37° C.) with test drug or Tyrode's buffer. Total and non-specific release controls were exposed to 0.1% Triton X-100 and goat IgG (10 μg/mL), respectively. The reaction was terminated by centrifugation (500×g, 4° C., 10 min). Supernatants were stored at −20° C. until analyzed for histamine content by RIA (Beckman Coulter, Chicago, Ill.).
All test drugs were made to solution immediately prior to use. Each was dissolved in DMSO at 10 mM or greater concentration and then diluted in Tyrode's buffer containing 0.1% gelatin over the concentration for evaluation.
Inhibition of histamine release was determined by direct comparison of with anti-IgE challenged mast cells using Dunnett's t-test (Dunnett, “A multiple comparison procedure for comparing treatments with a control”, J. Amer. Stat. Assoc. (1955), 50:1096-1121).

Where [1] appears, read: Homo sapiens, Mast cell, bracketed value, apparently the mean of the individual determinations in the same cell, read-out: IC50(nM), value in square brackets.
The mark [2] stands for this setting: goat-anti-human IgE 10 μg/mL challenge 15 min after 15 min drug treatment, individual determinations (values outside brackets), read-out: IC50.

Where “and” joins values, the source holds several entries; their conditions need not be identical. Equal values may be shown once. Read-outs that look alike come from different tables or passages of the source.

For `CNC(=O)c1cccc(SSc2cccc(C(=O)NC)c2)c1` [Compound 6], the IC50 by setting is: (Homo sapiens, Mast cell, 0.25 h, goat-anti-human IgE 10 μg/mL challenge 15 min after 15 min drug treatment, individual determinations (values outside brackets), read-out: IC50) 402 nM; under setting [1], 312 nM; under setting [2], 222 nM.
For `CNC(=O)c1ccccc1SSc1ccccc1C(=O)NC` [Compound 4], the IC50 under setting [1] was found to be 282 nM.
The same measure, in the same setting: for `C=CCNC(=O)c1ccccc1SSc1ccccc1C(=O)NCC=C` [Compound 3] the value was 148 nM.
On to `CC(O)CNC(=O)c1ccccc1SSc1ccccc1C(=O)NCC(C)O` (stereo not drawn) [Compound 5], for which the IC50 runs as follows: under setting [1], 122 nM; under setting [2], 107 nM and 219 nM and 229 nM and 84 nM and 71 nM.
As to `O=C(NCCCN1CCOCC1)c1ccccc1SSc1ccccc1C(=O)NCCCN1CCOCC1` [Compound 2], the half-inhibitory concentration (IC50) is, setting by setting: under setting [1], 105 nM; under setting [2], 78 nM and 199 nM and 39 nM.

As a reminder, the IC50 is the concentration that inhibits the measured activity by half.
